Reference: ChEMBL document CHEMBL5236617, “Rapid Evolution of a Fragment-like Molecule to Pan-Metallo-Beta-Lactamase Inhibitors: Initial Leads toward Clinical Candidates” (J Med Chem, 2022)
The source made the active and inactive calls. The calls are words filed in the database; no cut-off is given here.

Columns and labels:
[1] = Inhibition of GST-tagged bacterial beta-lactamase […] expressed in Escherichia coli BL21(DE3) using CCF2-FA as substrate by fluorescence assay; parameters: species or system Bacteria
[2] = Inhibition of GST-tagged bacterial beta-lactamase IMP-1 expressed in Escherichia coli BL21(DE3) using CCF2-FA as substrate by fluorescence assay; parameters: species or system Bacteria
[3] = Inhibition of GST-tagged bacterial beta-lactamase VIM-1 expressed in Escherichia coli BL21(DE3) using CCF2-FA as substrate by fluorescence assay; parameters: species or system Bacteria
Escherichia coli = assay: Potentiation of imipenem-induced antibacterial activity against NDM-1 expressing Escherichia coli assessed as imipenem MIC incubated for 22 to 24 hrs (reference value: 32 ug/ml); assay type: functional; conditions: time 22-24 hrs
Serratia marcescens = assay: Potentiation of imipenem-induced antibacterial activity against IMP-1 expressing Serratia marcescens assessed as imipenem MIC incubated for 22 to 24 hrs (reference value: 16 ug/ml); assay type: functional; conditions: time 22-24 hrs
Klebsiella pneumoniae [4] = assay: Potentiation of imipenem-induced antibacterial activity against VIM-1 expressing Klebsiella pneumoniae assessed as imipenem MIC incubated for 22 to 24 hrs (reference value: 16 ug/ml); assay type: functional; conditions: time 22-24 hrs
[5] = Inhibition of Cav1.5 (unknown origin); parameters: species or system Homo sapiens
Klebsiella pneumoniae [6] = assay: Antibacterial activity against Klebsiella pneumoniae MB9249 expressing IMP-26 infected in cyclophosphamide treated DBA/2 mouse assessed as reduction in bacterial burden in kidney at 10 to 50 mg/kg, sc administered three times for 1 day and measured after 24 hrs post injection; assay type: functional, organism-based; conditions: dose 10-50 mg/kg
Klebsiella pneumoniae [7] = assay: Antibacterial activity against Klebsiella pneumoniae MB9249 expressing IMP-26 infected in cyclophosphamide treated DBA/2 mouse assessed as reduction in bacterial burden in spleen at 10 to 50 mg/kg, sc administered three times for 1 day and measured after 24 hrs post injection; assay type: functional, organism-based; conditions: dose 10-50 mg/kg
Klebsiella pneumoniae [8] = assay: Antibacterial activity against Klebsiella pneumoniae MB9249 expressing IMP-26 infected in cyclophosphamide treated DBA/2 mouse assessed as reduction in bacterial burden in kidney at 10 to 50 mg/kg, sc administered three times for 1 day and measured after 24 hrs post injection in presence of imipenem; assay type: functional, organism-based; conditions: dose 10-50 mg/kg
Klebsiella pneumoniae [9] = assay: Antibacterial activity against Klebsiella pneumoniae MB9249 expressing IMP-26 infected in cyclophosphamide treated DBA/2 mouse assessed as reduction in bacterial burden in spleen at 10 to 50 mg/kg, sc administered three times for 1 day and measured after 24 hrs post injection in presence of imipenem; assay type: functional, organism-based; conditions: dose 10-50 mg/kg

Row | IC50 [1] | IC50 [2] | IC50 [3] | Compound | also measured
1 | 4960 nM | 2360 nM | 8640 nM | Cc1ccc(-c2cccc(S(=O)(=O)O)c2-c2nnn[nH]2)cc1 | 
2 | 15800 nM | > 20000 nM | 18000 nM | CNS(=O)(=O)c1cccc(-c2ccc(C)cc2)c1-c1nnn[nH]1 | 
3 | 704 nM | > 20000 nM | 7200 nM | OCc1ccc(-c2cccc(O)c2-c2nnn[nH]2)cc1 | 
4 | 3170 nM | 2410 nM | 6960 nM | Cc1ccc(-c2cccc(C(=O)O)c2-c2nnn[nH]2)cc1 | 
5 | 35 nM | 375 nM | 201 nM | NS(=O)(=O)c1nccc(-c2ccccc2)c1-c1nn[nH]n1 | MITC95 (Escherichia coli): <0.195 µM
6 | 35 nM | 369 nM | 269 nM | NS(=O)(=O)c1nccc(-c2ccc(CO)cc2)c1-c1nn[nH]n1 | MITC95 (Escherichia coli): 0.558 µM; MITC95 (Serratia marcescens): 5.19 µM; MITC95 (Klebsiella pneumoniae [4]): 11.76 µM; IC50 [5]: > 30000 nM; Activity (Klebsiella pneumoniae [6]): inactive; Activity (Klebsiella pneumoniae [7]): inactive; Activity (Klebsiella pneumoniae [8]): Active; Activity (Klebsiella pneumoniae [9]): Active
7 | 3 nM | 330 nM | 90 nM | NS(=O)(=O)c1cccc(-c2ccccn2)c1-c1nn[nH]n1 | MITC95 (Escherichia coli): 0.78 µM; MITC95 (Klebsiella pneumoniae [4]): 25 µM

More lines, now with the values behind:

Row | Compound | IC50 [1] | IC50 [2] | IC50 [3] | also measured
8 | O=C(O)COc1ccc2c(c1)CCN(C(=O)C(CS)CCc1ccccc1)C2C(=O)O (stereo not given) | 0.243 nM | 0.155 nM | 2.48 nM | 
9 | CCCCc1nc2ccc(O)cc2c(=O)n1Cc1ccc(-c2ccccc2-c2nnn[nH]2)cc1 | 52 nM |  | 13 nM | 
10 | CCCc1c(OCc2cccc(-c3ccccc3-c3nnn[nH]3)c2)ccc(C(C)=O)c1O | 35 nM | 1 nM | 23 nM | 
11 | CC(CS)C(=O)N1CCc2ccccc2C1C(=O)O (stereo not given) | 3.5 nM | 2.7 nM | 7.4 nM | 
12 | NCCNC(=O)C[N+]12CC[N+](Cc3ccc(-c4ccc(C[C@H](C(=O)O)[C@H](Cc5ccccc5)C(=O)O)cc4)cc3)(CC1)CC2 | > 200 nM |  | 2.8 nM | 
